Source: patent US9085605B2, “Chemical synthesis and anti-tumor and anti-metastatic effects of dual functional conjugate” (Shenzhen Salubris Pharmaceuticals Co., Ltd., priority 2010, dated 2015)

Columns and labels:
[1] = test system: 10 human tumor cell lines; assay: Antitumor activity screening in 10 human tumor cell lines; format: cell-based
Description: In the invention, the compounds, MTC-301, MTC-302, MTC-303, MTC-304, MTC-305, MTC-306, MTC-307, MDC-308, MDC-403, MDC-404, MDC-405. MDC-406, MDC-407 and MDC-408 were screened their antitumor activity in 10 human tumor cell lines. […] The experimental results refer to FIGS. 13-16.

[2] = test system: 60 human tumor cell lines; assay: NCI screening of antitumor activity in vitro in 60 human tumor cell lines; format: cell-based
Description: The experimental results refer to FIGS. 1-12.

[3] = test system: human breast cancer line MDA-MB-231; assay: Tumor growth inhibition in nude mice xenograft model, MDA-MB-231
Procedure: • 1. […] Drug administration dose were set as: 10 mg/kg, 15 mg/kg, and 20 mk/kg, drug administration volume was 0.2 mL/20 g. • 2. […] MDA [Peptide (P) 0.54 mg/mL (0.001M), Example 10], a colorless and clear liquid, was prepared by the commission, can be directly used after the repackaging in a sterile condition, stored at 4° C. […] Certificate NO. […] SYSK (BeiJing) 2004-0001. Experiment Methods:
The mice were divided into groups and administrated drug after 11 days.
The mice were divided into eight groups, each group had 6-8 mice. The groups contained Negative control. […] After grouping, all mice were administrated with drug by intraperitoneal injection once a day depends on their body weight.
Other groups were administered with drugs for 24 times successively. The experiment was completed 24 h after the last administration.
The mice were sacrificed, and tumors were isolated and their weight was measured, and the inhibition rate of tumor growth by drugs were calculated. […] Calculation methods and formula were omitted.

Structure (SMILES) | 50% growth inhibition (GI50) activity [1] | also measured
CC(=O)O[C@H]1C(=O)[C@@]2(C)[C@H]([C@H](OC(=O)c3ccccc3)[C@]3(O)C[C@H](OC(=O)[C@H](OC(=O)CCC(=O)NCCCCC(NC(=O)CC[C@H](NC(=O)C(C)NC(=O)/C=C/c4ccc(F)cc4Cl)C(N)=O)C(N)=O)[C@@H](NC(=O)c4ccccc4)c4ccccc4)C(C)=C1C3(C)C)[C@]1(OC(C)=O)CO[C@@H]1C[C@@H]2O (some centres unmarked) [MTC-305] | in the same magnitude range as paclitaxel or docetaxel | –
CC(=O)O[C@@]12CO[C@@H]1C[C@H](O)[C@@]1(C)C(=O)[C@H](O)C3=C(C)[C@@H](OC(=O)[C@H](OC(=O)CCC(=O)NCCCCC(NC(=O)CC[C@H](NC(=O)C(C)NC(=O)/C=C/c4ccc(F)cc4)C(N)=O)C(N)=O)[C@@H](NC(=O)OC(C)(C)C)c4ccccc4)C[C@@](O)([C@@H](OC(=O)c4ccccc4)[C@H]21)C3(C)C (some centres unmarked) [MDC-406] | in the same magnitude range as paclitaxel or docetaxel | –
CC(=O)O[C@@]12CO[C@@H]1C[C@H](O)[C@@]1(C)C(=O)[C@H](O)C3=C(C)[C@@H](OC(=O)[C@H](OC(=O)CCC(=O)NCCCCC(NC(=O)CC[C@H](NC(=O)C(C)NC(=O)/C=C/c4cccc(F)c4)C(N)=O)C(N)=O)[C@@H](NC(=O)OC(C)(C)C)c4ccccc4)C[C@@](O)([C@@H](OC(=O)c4ccccc4)[C@H]21)C3(C)C (some centres unmarked) [MDC-407] | in the same magnitude range as paclitaxel or docetaxel | –
CC(=O)O[C@@]12CO[C@@H]1C[C@H](O)[C@@]1(C)C(=O)[C@H](O)C3=C(C)[C@@H](OC(=O)[C@H](OC(=O)CCC(=O)NCCCCC(NC(=O)CC[C@H](NC(=O)C(C)NC(=O)/C=C/c4ccc(F)cc4F)C(N)=O)C(N)=O)[C@@H](NC(=O)OC(C)(C)C)c4ccccc4)C[C@@](O)([C@@H](OC(=O)c4ccccc4)[C@H]21)C3(C)C (some centres unmarked) [MDC-403] | in the same magnitude range as paclitaxel or docetaxel | –
CC(=O)O[C@H]1C(=O)[C@@]2(C)[C@H]([C@H](OC(=O)c3ccccc3)[C@]3(O)C[C@H](OC(=O)[C@H](OC(=O)CCC(=O)NCCCCC(NC(=O)CC[C@H](NC(=O)C(C)NC(=O)/C=C/c4cccc(F)c4)C(N)=O)C(N)=O)[C@@H](NC(=O)c4ccccc4)c4ccccc4)C(C)=C1C3(C)C)[C@]1(OC(C)=O)CO[C@@H]1C[C@@H]2O (some centres unmarked) [MTC-307] | in the same magnitude range as paclitaxel or docetaxel | –
CC(=O)O[C@@]12CO[C@@H]1C[C@H](O)[C@@]1(C)C(=O)[C@H](O)C3=C(C)[C@@H](OC(=O)[C@H](OC(=O)CCC(=O)NCCCCC(NC(=O)CC[C@H](NC(=O)C(C)NC(=O)/C=C/c4ccc(Cl)cc4)C(N)=O)C(N)=O)[C@@H](NC(=O)OC(C)(C)C)c4ccccc4)C[C@@](O)([C@@H](OC(=O)c4ccccc4)[C@H]21)C3(C)C (some centres unmarked) [MDC-400] | – | 50% growth inhibition (GI50) activity [2]: in the same magnitude range as paclitaxel
CC(=O)O[C@H]1C(=O)[C@@]2(C)[C@H]([C@H](OC(=O)c3ccccc3)[C@]3(O)C[C@H](OC(=O)[C@H](OC(=O)CCC(=O)NCCCCC(NC(=O)CC[C@H](NC(=O)C(C)NC(=O)c4ccc5ccccc5n4)C(N)=O)C(N)=O)[C@@H](NC(=O)c4ccccc4)c4ccccc4)C(C)=C1C3(C)C)[C@]1(OC(C)=O)CO[C@@H]1C[C@@H]2O (some centres unmarked) [MTC-213] | – | 50% growth inhibition (GI50) activity [2]: in the same magnitude range as paclitaxel
CC(=O)O[C@@]12CO[C@@H]1C[C@H](O)[C@@]1(C)C(=O)[C@H](O)C3=C(C)[C@@H](OC(=O)[C@H](OC(=O)CCC(=O)NCCCCC(NC(=O)CC[C@H](NC(=O)C(C)NC(=O)/C=C/c4ccc(F)c(F)c4)C(N)=O)C(N)=O)[C@@H](NC(=O)OC(C)(C)C)c4ccccc4)C[C@@](O)([C@@H](OC(=O)c4ccccc4)[C@H]21)C3(C)C (some centres unmarked) [MDC-408] | in the same magnitude range as paclitaxel or docetaxel | –
CC(=O)O[C@H]1C(=O)[C@@]2(C)[C@H]([C@H](OC(=O)c3ccccc3)[C@]3(O)C[C@H](OC(=O)[C@H](OC(=O)CCC(=O)NCCCCC(NC(=O)CC[C@H](NC(=O)C(C)NC(=O)/C=C/c4ccc(F)cc4)C(N)=O)C(N)=O)[C@@H](NC(=O)c4ccccc4)c4ccccc4)C(C)=C1C3(C)C)[C@]1(OC(C)=O)CO[C@@H]1C[C@@H]2O (some centres unmarked) [MTC-306] | in the same magnitude range as paclitaxel or docetaxel | –
CC(=O)O[C@H]1C(=O)[C@@]2(C)[C@H]([C@H](OC(=O)c3ccccc3)[C@]3(O)C[C@H](OC(=O)[C@H](OC(=O)CCC(=O)NCCCCC(NC(=O)CC[C@H](NC(=O)C(C)NC(=O)COc4cccc5ccccc45)C(N)=O)C(N)=O)[C@@H](NC(=O)c4ccccc4)c4ccccc4)C(C)=C1C3(C)C)[C@]1(OC(C)=O)CO[C@@H]1C[C@@H]2O (some centres unmarked) [MTC-233] | – | 50% growth inhibition (GI50) activity [2]: in the same magnitude range as paclitaxel
CC(=O)O[C@@]12CO[C@@H]1C[C@H](O)[C@@]1(C)C(=O)[C@H](O)C3=C(C)[C@@H](OC(=O)[C@H](OC(=O)CCC(=O)NCCCCC(NC(=O)CC[C@H](NC(=O)C(C)NC(=O)/C=C/c4ccc(F)cc4Cl)C(N)=O)C(N)=O)[C@@H](NC(=O)OC(C)(C)C)c4ccccc4)C[C@@](O)([C@@H](OC(=O)c4ccccc4)[C@H]21)C3(C)C (some centres unmarked) [MDC-405] | in the same magnitude range as paclitaxel or docetaxel | –
CC(NC(=O)/C=C/c1ccc(Cl)cc1)C(=O)N[C@@H](CCC(=O)NC(CCCCN)C(N)=O)C(N)=O (some centres unmarked) [MDA] | – | Tumor growth rate (in words) ([3]; MDA 0.54 mg/mL × 24): slower than the tumor growth rate of the negative control group; RTV ([3]; MDA 0.54 mg/mL × 24, i.p.): 15.06 ± 5.292; T/C ([3]; MDA 0.54 mg/mL × 24, i.p.): 83.5%; TGI ([3]; MDA 0.54 mg/mL × 24, i.p.): 30.3%; Tumor volume Beginning ([3]; MDA 0.54 mg/mL × 24, i.p.): 141 ± 61.1 mm^3; Tumor volume End ([3]; MDA 0.54 mg/mL × 24, i.p.): 1898 ± 775.4 mm^3; Tumor weight ([3]; MDA 0.54 mg/mL × 24, i.p.): 1.98 ± 0.744 g
CC(=O)O[C@H]1C(=O)[C@@]2(C)[C@H]([C@H](OC(=O)c3ccccc3)[C@]3(O)C[C@H](OC(=O)[C@H](OC(=O)CCC(=O)NCCCCC(NC(=O)CC[C@H](NC(=O)C(C)NC(=O)/C=C/c4ccc(Cl)cc4F)C(N)=O)C(N)=O)[C@@H](NC(=O)c4ccccc4)c4ccccc4)C(C)=C1C3(C)C)[C@]1(OC(C)=O)CO[C@@H]1C[C@@H]2O (some centres unmarked) [MTC-304] | in the same magnitude range as paclitaxel or docetaxel | –
CC(=O)O[C@H]1C(=O)[C@@]2(C)[C@H]([C@H](OC(=O)c3ccccc3)[C@]3(O)C[C@H](OC(=O)[C@H](OC(=O)CCC(=O)NCCCCC(NC(=O)CC[C@H](NC(=O)C(C)NC(=O)/C=C/c4ccc(C)cc4)C(N)=O)C(N)=O)[C@@H](NC(=O)c4ccccc4)c4ccccc4)C(C)=C1C3(C)C)[C@]1(OC(C)=O)CO[C@@H]1C[C@@H]2O (some centres unmarked) [MTC-302] | in the same magnitude range as paclitaxel or docetaxel | 50% growth inhibition (GI50) activity [2]: in the same magnitude range as paclitaxel
CC(=O)O[C@H]1C(=O)[C@@]2(C)[C@H]([C@H](OC(=O)c3ccccc3)[C@]3(O)C[C@H](OC(=O)[C@H](OC(=O)CCC(=O)NCCCCC(NC(=O)CC[C@H](NC(=O)C(C)NC(=O)/C=C/c4ccc(F)cc4F)C(N)=O)C(N)=O)[C@@H](NC(=O)c4ccccc4)c4ccccc4)C(C)=C1C3(C)C)[C@]1(OC(C)=O)CO[C@@H]1C[C@@H]2O (some centres unmarked) [MTC-303] | in the same magnitude range as paclitaxel or docetaxel | –
CC(=O)O[C@@]12CO[C@@H]1C[C@H](O)[C@@]1(C)C(=O)[C@H](O)C3=C(C)[C@@H](OC(=O)[C@H](OC(=O)CCC(=O)NCCCCC(NC(=O)CC[C@H](NC(=O)C(C)NC(=O)/C=C/c4ccc(Cl)cc4F)C(N)=O)C(N)=O)[C@@H](NC(=O)OC(C)(C)C)c4ccccc4)C[C@@](O)([C@@H](OC(=O)c4ccccc4)[C@H]21)C3(C)C (some centres unmarked) [MDC-404] | in the same magnitude range as paclitaxel or docetaxel | –
CC(=O)O[C@H]1C(=O)[C@@]2(C)[C@H]([C@H](OC(=O)c3ccccc3)[C@]3(O)C[C@H](OC(=O)[C@H](OC(=O)CCC(=O)NCCCCC(NC(=O)CC[C@H](NC(=O)C(C)NC(=O)/C=C/c4ccc(F)c(F)c4)C(N)=O)C(N)=O)[C@@H](NC(=O)c4ccccc4)c4ccccc4)C(C)=C1C3(C)C)[C@]1(OC(C)=O)CO[C@@H]1C[C@@H]2O (some centres unmarked) [MTC-308] | in the same magnitude range as paclitaxel or docetaxel | –
CC(=O)O[C@H]1C(=O)[C@@]2(C)[C@H]([C@H](OC(=O)c3ccccc3)[C@]3(O)C[C@H](OC(=O)[C@H](OC(=O)CCC(=O)NCCCCC(NC(=O)CC[C@H](NC(=O)C(C)NC(=O)/C=C/c4ccc(O)cc4)C(N)=O)C(N)=O)[C@@H](NC(=O)c4ccccc4)c4ccccc4)C(C)=C1C3(C)C)[C@]1(OC(C)=O)CO[C@@H]1C[C@@H]2O (some centres unmarked) [MTC-301] | in the same magnitude range as paclitaxel or docetaxel | –
CC(=O)O[C@H]1C(=O)[C@@]2(C)[C@H]([C@H](OC(=O)c3ccccc3)[C@]3(O)C[C@H](OC(=O)[C@H](OC(=O)CCC(=O)NCCCCC(NC(=O)CC[C@H](NC(=O)C(C)NC(=O)/C=C/c4cccs4)C(N)=O)C(N)=O)[C@@H](NC(=O)c4ccccc4)c4ccccc4)C(C)=C1C3(C)C)[C@]1(OC(C)=O)CO[C@@H]1C[C@@H]2O (some centres unmarked) [MTC-219] | – | 50% growth inhibition (GI50) activity [2]: in the same magnitude range as paclitaxel
